Data published in article PMC8011197, “A polo-like kinase modulates cytokinesis and flagella biogenesis in Giardia lamblia” (Parasites & Vectors, 2021).

Experiments:
Format in all cases: cell-based
[1] = tested on: Giardia lamblia trophozoites; assay: Nuclear phenotype (number, position, condensation of nuclei) of Giemsa-stained cells; conditions: for Percentage of cells, 1N / Percentage of cells, 2N, abnormal / Percentage of cells, 2N, normal / Percentage of cells, 3N / Percentage of cells, 4N / Percentage of cells, >4N: 5 µM GW
Protocol: For the microscopic observation of cells, the cells were attached to slides, air-dried and fixed with 100% methanol for 10 min, following which they were stained with 10% Giemsa solution for 40 min and washed with distilled water. After mounting with dibutyl phthalate xylene (Sigma-Aldrich, St. Louis, MO, USA), the slides were observed under an Axiovert 200 microscope (Carl Zeiss AG, Oberkochen, Germany). For each condition, at least 300 cells were examined to determine the number and position of the nuclei. Among cells with two nuclei in normal positions, the number of cells showing nuclei condensation was also recorded. Data are presented as the mean ± standard deviation (SD) of three independent experiments. […]

[2] = tested on: Giardia lamblia trophozoites; assay: Growth inhibition of Giardia trophozoites, hemocytometer count after 24 h; conditions: Giardia duodenalis, GW 5–15 μM, 2 × 10^4 cells/ml, read-out: IC50, inhibition of growth of G. lamblia
Protocol: After treatment for 24 h, the number of parasites per milliliter was determined using a hemocytometer. Giardia trophozoites treated with 0.3% dimethyl sulfoxide (DMSO) were used as controls.

[3] = tested on: Giardia lamblia trophozoites; assay: DNA content / cell cycle phase by flow cytometry (PI)
Protocol: Both the GW-treated and control G. lamblia cells were analyzed for their DNA content using flow cytometry. Briefly, the harvested cells were resuspended in 50 μl TYI-S-33 culture medium and treated with 150 μl of a cell fixative (1% Triton X-100, 40 mM citric acid, 20 mM dibasic sodium phosphate, 200 mM sucrose; pH 3.0) at room temperature for 5 min. The samples were diluted with 350 μl of diluent buffer [125 mM MgCl2 in phosphate-buffered saline (PBS: 137 mM NaCl, 2.7 mM KCl, 10.1 mM Na2HPO4 and 2 mM KH2PO4, pH 7.4)] and then stored at 4 °C until use. Fixed cells were treated with 2.5 μg RNase A (Sigma-Aldrich) and 10 μg/ml propidium iodide (PI; Sigma-Aldrich) for 30 min at 37 °C. […] Along representative histograms, averages of three independent experiments were presented in bar graphs.
Expression of GlPLK was knocked down using a morpholino, as described previously. A specific morpholino for GlPLK was designed by Gene Tools (Philomath, OR, USA) (see Table 1 for sequences). Nonspecific oligomers were used as a control morpholino (Table 1). Cells (5 × 10^6 in 0.3 ml medium) were treated with the lyophilized morpholino at a final concentration of 100 nM. After electroporation, the cells were grown for various lengths of time, ranging from 12 to 48 h, and analyzed for GlPLK inhibition by western blotting using anti-HA and anti-GlPLK antibodies. The cells at 18 h post-transfection were analyzed for their nuclear phenotypes, including the number and position of nuclei and condensation and flagella length, as described above. In addition, cells transfected with control or anti-glplk morpholino were harvested at 6 or 18 h, and then evaluated with respect to their DNA content by flow cytometry followed by analysis using FlowJo software (FlowJo Llc). […]
These cells were then analyzed by flow cytometry to determine the ploidy of their DNA. Intracellular levels of GlPLK protein in the DMSO-treated, nocodazole-treated and nocodazole/aphidicolin-treated Giardia cells were determined by western blotting. The intracellular levels of glplk transcripts were also measured in these cells.

[4] = tested on: Giardia lamblia trophozoites; assay: Flagella length of Giemsa-stained cells (DIC images, Fiji/ImageJ); conditions: 5 µM GW
From the text: To measure flagella length, we observed Giemsa-stained cells under an Axiovert 200 microscope and analyzed their differential interference contrast (DIC) images using Fiji, an open-source platform for biological-image analysis. Each of four types of flagella were divided into cytoplasmic and membrane-bound categories and then measured using the line Freehand Tracing 0mode in ImageJ software (http://imagej.nih.gov/ij/). […] Data are presented as the mean ± SD of three independent experiments.
Expression of GlPLK was knocked down using a morpholino, as described previously. A specific morpholino for GlPLK was designed by Gene Tools (Philomath, OR, USA) (see Table 1 for sequences). Nonspecific oligomers were used as a control morpholino (Table 1). Cells (5 × 10^6 in 0.3 ml medium) were treated with the lyophilized morpholino at a final concentration of 100 nM. After electroporation, the cells were grown for various lengths of time, ranging from 12 to 48 h, and analyzed for GlPLK inhibition by western blotting using anti-HA and anti-GlPLK antibodies. The cells at 18 h post-transfection were analyzed for their nuclear phenotypes, including the number and position of nuclei and condensation and flagella length, as described above. In addition, cells transfected with control or anti-glplk morpholino were harvested at 6 or 18 h, and then evaluated with respect to their DNA content by flow cytometry followed by analysis using FlowJo software (FlowJo Llc). Transfection was performed at least five times, and the data presented were derived from three independent knockdown experiments.

## COc1cc2ncn(-c3cc(OCc4ccccc4C(F)(F)F)c(C(N)=O)s3)c2cc1OC [GW, GW843682X]
[1]; 3 h
  Percentage of cells, 1N: 0.4±0.1%
  Percentage of cells, 2N, abnormal: 0.7±0.3%
  Percentage of cells, 2N, normal: 97.2±0.8%
  Percentage of cells, 3N: 0.2±0.1%
  Percentage of cells, 4N: 0.7±0.2%
  Percentage of cells, >4N: 0.8±0.3%
[1]; 6 h
  Percentage of cells, 1N: 0.3±0.2%
  Percentage of cells, 2N, abnormal: 0.8±0.3%
  Percentage of cells, 2N, normal: 96.9±0.7%
  Percentage of cells, 3N: 0.3±0.1%
  Percentage of cells, 4N: 0.8±0.2%
  Percentage of cells, >4N: 0.9±0.4%
[1]; 5 μM GW, 6 h, compared to DMSO-treated cells
  Percentage of cells with condensed nuclei: significantly increased
[1]; 9 h
  Percentage of cells, 1N: 1.2±0.1%
  Percentage of cells, 2N, abnormal: 1.3±0.3%
  Percentage of cells, 2N, normal: 91.7±0.1%
  Percentage of cells, 3N: 1.3±0.4%
  Percentage of cells, 4N: 3.3±0.4%
  Percentage of cells, >4N: 1.7±0.3%
[1]; 12 h
  Percentage of cells, 1N: 1.2±0.1%
  Percentage of cells, 2N, abnormal: 1.4±0.6%
  Percentage of cells, 2N, normal: 91.0±1.4%
  Percentage of cells, 3N: 1.5±0.4%
  Percentage of cells, 4N: 3.1±0.9%
  Percentage of cells, >4N: 1.9±0.8%
[1]; 15 h
  Percentage of cells, 1N: 1.1±0.2%
  Percentage of cells, 2N, abnormal: 1.6±0.5%
  Percentage of cells, 2N, normal: 86.1±1.4%
  Percentage of cells, 3N: 1.5±0.3%
  Percentage of cells, 4N: 6.7±0.5%
  Percentage of cells, >4N: 3.1±0.6%
[1]; 18 h
  Percentage of cells, 1N: 0.9±0.3%
  Percentage of cells, 2N, abnormal: 0.9±0.4%
  Percentage of cells, 2N, normal: 88.5±1.2%
  Percentage of cells, 3N: 1.6±0.4%
  Percentage of cells, 4N: 5.4±0.8%
  Percentage of cells, >4N: 2.7±0.5%
[1]; 24 h
  Percentage of cells, 1N: 1.2±0.3%
  Percentage of cells, 2N, abnormal: 1.6±0.5%
  Percentage of cells, 2N, normal: 85.6±0.5%
  Percentage of cells, 3N: 2.3±0.2%
  Percentage of cells, 4N: 6.1±0.5%
  Percentage of cells, >4N: 3.2±0.4%
[2]
  IC50: 7 µM
[3]; 5 μM GW, 6 and 12 h, control 72–73%
  Percentage of cells at G2/M phase: 86%
[4]
  Length of cytoplasmic part of posterolateral, anterior and caudal flagella: None of the three flagella showed any significant change
[4]; 18 h
  Length of membrane-bound portion of posterolateral and ventral flagella: did not induce a significant increase
[4]; 18 h, DMSO 7.2 μm
  Length of membrane-bound part of caudal flagella: 11.1 µm
[4]; 18 h, DMSO 9.0 μm
  Length of membrane-bound part of anterior flagella: 11.3 µm

## C[C@@]1(CO)[C@H](O)CC[C@@]2(C)[C@H]1CC[C@H]1C[C@@H]3C[C@@]12CC[C@]3(O)CO [aphidicolin]
[3]; sequentially 100 nM nocodazole, then 6 μM aphidicolin 6 h, Giardia carrying pGlPLK.neo
  Percentage of G1/S-arrested cells after synchronization: 86%

## COC(=O)Nc1nc2ccc(C(=O)c3cccs3)cc2[nH]1 [nocodazole]
[3]; 100 nM nocodazole, Giardia carrying pGlPLK.neo, 0.01% DMSO control 78%
  Percentage of G2/M-phase cells after synchronization: 91%
